Measurements from patent US6753335B2, “Quinolinyl-piperidin-4-ylidene-methyl-benzamide derivatives for the treatment of pain” (AstraZeneca AB, priority 2000, dated 2004).

Legend:
Type in all cases: biochemical
[1] = target: T1, delta receptors, mouse brain (Mus musculus, UniProt P32300); test: GTP[γ]35S binding functional assay, homogenised mouse brain membranes
T1 construct: from tissue; host or cells: mouse brain homogenate
Protocol: (§1) B. Mouse and rat brains were weighed and rinsed in ice-cold PBS (containing 2.5 mM EDTA, pH 7.4). The brains were homogenized with a polytron for 15 sec (mouse) or 30 sec (rat) in ice-cold lysis buffer (50mM Tris, pH 7.0, 2.5mM EDTA, with phenylmethylsulfonyl fluoride added just prior use to […] from a 0.5 M stock in DMSO:ethanol).
(§2) The agonist activity of the compounds is measured by determining the degree to which the compounds receptor complex activates the binding of GTP to G-proteins to which the receptors are coupled. In the GTP binding assay, GTP[γ]^35S is combined with test compounds and membranes from HEK-293S cells expressing the cloned human opioid receptors or from homogenised rat and mouse brain. Agonists stimulate GTP[γ]^35S binding in these membranes. The EC50 and Emax values of compounds are determined from dose-response curves. Right shifts of the dose response curve by the delta antagonist naltindole are performed to verify that agonist activity is mediated through delta receptors.

[2] = target: T2, delta receptors, rat brain (Rattus norvegicus, UniProt P33533); test: GTP[γ]35S binding functional assay, homogenised rat brain membranes
T2 construct: from tissue; host or cells: rat brain homogenate
Protocol: as §1, §2

cloned human δ receptor = target: T3, cloned human δ receptor (Homo sapiens, UniProt P41143); test: GTP[γ]35S binding functional assay, membranes from HEK-293S cells expressing cloned human opioid receptors (HDELTA)
T3 construct: expressed in transfected cells; host or cells: human 293S (HEK-293S) cells, geneticin-selected
Protocol: A. Human 293S cells expressing cloned human μ, δ, and κ receptors and neomycin resistance were grown in suspension at 37° C. and 5% CO2 in shaker flasks containing calcium-free DMEM10% FBS, 5% BCS, 0.1% Pluronic F-68, and 600 μg/ml geneticin.
Cells were pelleted and resuspended in lysis buffer (50 mM Tris, pH 7.0, 2.5 mM EDTA, with PMSF added just prior to use to 0.1 mM from a 0.1 M stock in ethanol), incubated on ice for 15 min, then homogenized with a polytron for 30 sec. The suspension was spun at 1000 g (max) for 10 min at 4° C. The supernatant was saved on ice and the pellets resuspended and spun as before. The supernatants from both spins were combined and spun at 46,000 g (max) for 30 min. The pellets were resuspended in cold Tris buffer (50 mM Tris/Cl, pH 7.0) and spun again. The final pellets were resuspended in membrane buffer (50 mM Tris, […], pH 7.0). Aliquots (1 ml) in polypropylene tubes were frozen in dry ice/ethanol and stored at −70° C. until use. The protein concentrations were determined by a modified Lowry assay with sodium dodecyl sulfate.
as §2

T3 sequence (P41143 whole entry): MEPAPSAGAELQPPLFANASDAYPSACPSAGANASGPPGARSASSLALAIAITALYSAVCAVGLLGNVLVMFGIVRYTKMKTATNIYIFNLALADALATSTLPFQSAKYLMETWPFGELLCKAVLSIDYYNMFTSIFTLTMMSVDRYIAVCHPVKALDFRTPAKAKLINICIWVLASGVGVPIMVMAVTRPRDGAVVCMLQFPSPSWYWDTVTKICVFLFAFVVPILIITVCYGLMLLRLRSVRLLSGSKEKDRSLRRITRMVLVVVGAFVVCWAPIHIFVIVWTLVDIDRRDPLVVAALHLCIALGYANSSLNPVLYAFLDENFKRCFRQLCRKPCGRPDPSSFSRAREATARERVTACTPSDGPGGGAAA
T2 sequence (P33533 whole entry): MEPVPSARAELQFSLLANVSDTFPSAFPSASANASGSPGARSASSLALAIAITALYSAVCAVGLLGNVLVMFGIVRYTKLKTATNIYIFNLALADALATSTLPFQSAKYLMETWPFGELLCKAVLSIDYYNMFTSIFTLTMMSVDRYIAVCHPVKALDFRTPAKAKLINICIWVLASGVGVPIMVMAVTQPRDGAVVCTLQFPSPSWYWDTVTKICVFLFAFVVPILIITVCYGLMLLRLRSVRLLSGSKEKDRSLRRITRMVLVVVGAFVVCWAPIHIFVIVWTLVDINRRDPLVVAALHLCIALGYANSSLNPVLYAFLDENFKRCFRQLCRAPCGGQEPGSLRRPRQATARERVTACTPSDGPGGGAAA
T1 sequence (P32300 whole entry): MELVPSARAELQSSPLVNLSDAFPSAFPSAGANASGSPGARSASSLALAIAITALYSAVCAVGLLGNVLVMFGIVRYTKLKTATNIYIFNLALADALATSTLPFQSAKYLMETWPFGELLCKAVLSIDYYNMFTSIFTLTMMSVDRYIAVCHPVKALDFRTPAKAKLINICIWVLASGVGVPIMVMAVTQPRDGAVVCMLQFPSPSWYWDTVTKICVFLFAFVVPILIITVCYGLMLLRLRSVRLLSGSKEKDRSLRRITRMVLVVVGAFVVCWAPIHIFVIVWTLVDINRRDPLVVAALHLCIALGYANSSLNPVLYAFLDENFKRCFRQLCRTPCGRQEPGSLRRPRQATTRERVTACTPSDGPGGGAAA

| Compound | Emax [1] [%] | Emax [2] [%] | Emax (cloned human δ receptor) [%] |
| --- | --- | --- | --- |
| CCN(CC)C(=O)c1ccc(C(=C2CCN(Cc3ccccc3)CC2)c2cccc3cccnc23)cc1 [Example 2, N,N-diethyl-4-(8-quinolinyl-N-benzyl-piperidin-4-ylidene-methyl)-benzamide] | 112 | 104 | 90.5 |
| CCN(CC)C(=O)c1ccc(C(=C2CCN(Cc3ccco3)CC2)c2cccc3cccnc23)cc1 [Example 3, N,N-diethyl-4-[[1-(2-furylmethyl)-4-piperidinylidene](8-quinoline)methyl]benzamide] | 146 | 130 | 103 |
| CCN(CC)C(=O)c1ccc(C(=C2CCN(Cc3cccs3)CC2)c2cccc3cccnc23)cc1 [Example 4, N,N-diethyl-4-{8-quinolinyl[1-(2-thienylmethyl)-4-piperidinylidene]methyl}benzamide] | 140 | 120 | 98.5 |
| CCN(CC)C(=O)c1ccc(C(=C2CCN(Cc3ccoc3)CC2)c2cccc3cccnc23)cc1 [Example 5, N,N-diethyl-4-[[1-(3-furylmethyl)-4-piperidinylidene](8-quinolinyl)methyl]benzamide] | 147 | 135 | 99 |
| CCN(CC)C(=O)c1ccc(C(=C2CCN(Cc3ccsc3)CC2)c2cccc3cccnc23)cc1 [Example 6, N,N-diethyl-4-{8-quinolinyl[1-(3-thienylmethyl)-4-piperidinylidene]methyl}benzamide] | 140 | 135 | 123 |
| CCN(CC)C(=O)c1ccc(C(=C2CCN(Cc3ccccn3)CC2)c2cccc3cccnc23)cc1 [Example 7] | 124 | 126 | 97.6 |
| CCN(CC)C(=O)c1ccc(C(=C2CCN(Cc3ncc[nH]3)CC2)c2cccc3cccnc23)cc1 [Example 8] | 138 | 148 | 111 |
| CCN(CC)C(=O)c1ccc(C(=C2CCN(Cc3c[nH]cn3)CC2)c2cccc3cccnc23)cc1 [Example 9] | 123 | 112 | 100 |
| CCN(CC)C(=O)c1ccc(C(=C2CCN(Cc3ccncc3)CC2)c2cccc3cccnc23)cc1 [Example 10] | 110 | 109 | 118 |
